Measured values published in ChEMBL document CHEMBL4014354, “2'-Chloro,2'-fluoro Ribonucleotide Prodrugs with Potent Pan-genotypic Activity against Hepatitis C Virus Replication in Culture” (J Med Chem, 2017).

What was measured:
[1] = Inhibition of C-terminal His-tagged HCV genotype 1b NS5Bdelta21 expressed in Escherichia coli BL21 (DE3) using synthetic 20mer RNA/[32P]GpG as template/primer after 90 mins by PAGE analysis; parameters: species or system Hepatitis C virus subtype 1b
[2] = Inhibition of HCV genotype 1b NS5B S96T mutant; parameters: species or system Hepatitis C virus subtype 1b
[3] = Inhibition of wild type HCV genotype 2a NS5B; parameters: species or system Hepatitis C virus subtype 2a
[4] = Inhibition of wild type HCV genotype 4a NS5B; parameters: species or system Hepatitis C virus subtype 4a
[5] = Inhibition of RNA polymerase 2 isolated from human HeLa cell nuclear extract assessed as decrease in incorporation of P32-alpha-CTP after 2 hrs by scintillation counting method; format: cell-free
[6] = target: DNA-directed RNA polymerase, mitochondrial (Homo sapiens) (UniProt O00411); assay: Inhibition of human POLRMT using 5'-P32-RNA/DNA hybrid assessed as incorporation of UTP at 100 uM after 2 hrs by scintillation counting method relative to control; parameters: scale not given: the % may be the effect or the level left
[7] = target: T1, DNA polymerase alpha catalytic subunit (Homo sapiens, UniProt P09884); assay: Inhibition of human DNA polymerase alpha using 5' end radiolabeled 24nt DNA/48nt DNA as primer/template after 5 mins by PAGE analysis
T1 sequence (P09884 whole entry): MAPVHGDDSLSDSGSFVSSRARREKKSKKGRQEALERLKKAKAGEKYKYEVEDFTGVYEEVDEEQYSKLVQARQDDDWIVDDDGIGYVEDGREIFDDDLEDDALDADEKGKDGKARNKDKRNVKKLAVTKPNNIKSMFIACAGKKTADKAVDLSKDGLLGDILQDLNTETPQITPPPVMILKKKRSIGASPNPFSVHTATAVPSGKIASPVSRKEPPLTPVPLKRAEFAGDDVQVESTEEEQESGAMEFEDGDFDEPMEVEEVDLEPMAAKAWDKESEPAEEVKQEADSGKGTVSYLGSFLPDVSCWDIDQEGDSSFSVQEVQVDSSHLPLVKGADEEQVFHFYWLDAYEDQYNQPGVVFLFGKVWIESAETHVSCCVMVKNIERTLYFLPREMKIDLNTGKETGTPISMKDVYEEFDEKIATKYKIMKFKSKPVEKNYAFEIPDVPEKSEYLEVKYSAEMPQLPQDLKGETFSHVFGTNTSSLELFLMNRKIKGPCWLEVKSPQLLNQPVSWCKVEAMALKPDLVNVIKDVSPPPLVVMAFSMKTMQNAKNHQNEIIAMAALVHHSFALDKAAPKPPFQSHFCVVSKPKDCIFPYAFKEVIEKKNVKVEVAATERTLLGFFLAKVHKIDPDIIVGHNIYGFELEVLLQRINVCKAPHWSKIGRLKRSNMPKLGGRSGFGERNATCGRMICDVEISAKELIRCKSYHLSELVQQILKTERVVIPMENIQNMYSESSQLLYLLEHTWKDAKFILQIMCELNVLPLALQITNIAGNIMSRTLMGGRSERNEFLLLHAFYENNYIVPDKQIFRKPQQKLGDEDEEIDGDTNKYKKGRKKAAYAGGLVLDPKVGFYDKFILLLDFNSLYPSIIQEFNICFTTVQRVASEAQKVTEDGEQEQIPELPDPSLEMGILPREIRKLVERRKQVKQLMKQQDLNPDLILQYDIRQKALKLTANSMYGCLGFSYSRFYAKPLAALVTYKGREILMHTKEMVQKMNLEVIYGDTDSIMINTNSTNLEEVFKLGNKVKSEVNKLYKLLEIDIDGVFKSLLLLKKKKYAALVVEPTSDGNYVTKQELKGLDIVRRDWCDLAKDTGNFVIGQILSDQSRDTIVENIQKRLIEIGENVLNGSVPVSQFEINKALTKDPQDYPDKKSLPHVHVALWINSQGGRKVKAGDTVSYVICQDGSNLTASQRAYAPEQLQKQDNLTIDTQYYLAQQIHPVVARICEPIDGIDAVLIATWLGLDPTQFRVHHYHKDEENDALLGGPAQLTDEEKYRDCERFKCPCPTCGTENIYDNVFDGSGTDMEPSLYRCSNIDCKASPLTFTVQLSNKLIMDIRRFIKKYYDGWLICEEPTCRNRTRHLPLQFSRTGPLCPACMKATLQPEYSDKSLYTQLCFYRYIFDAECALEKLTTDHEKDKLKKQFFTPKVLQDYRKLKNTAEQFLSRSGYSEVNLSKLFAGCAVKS

DNA polymerase beta = DNA polymerase beta (Homo sapiens, UniProt P06746); assay: Inhibition of human DNA polymerase beta using 5' end radiolabeled 24nt DNA/48nt DNA as primer/template after 5 mins by PAGE analysis
[8] = Inhibition of human DNA polymerase gamma using 5' end radiolabeled 24nt DNA/36nt DNA as primer/template after 120 mins by PAGE analysis
[9] = Metabolic stability in human blood assessed as compound remaining at 2 uM after 2 hrs by LC-MS/MS method; format: ADME, tissue-based; settings: read-out: Stability

Chain of DNA-directed RNA polymerase, mitochondrial (Homo sapiens) (O00411 whole entry): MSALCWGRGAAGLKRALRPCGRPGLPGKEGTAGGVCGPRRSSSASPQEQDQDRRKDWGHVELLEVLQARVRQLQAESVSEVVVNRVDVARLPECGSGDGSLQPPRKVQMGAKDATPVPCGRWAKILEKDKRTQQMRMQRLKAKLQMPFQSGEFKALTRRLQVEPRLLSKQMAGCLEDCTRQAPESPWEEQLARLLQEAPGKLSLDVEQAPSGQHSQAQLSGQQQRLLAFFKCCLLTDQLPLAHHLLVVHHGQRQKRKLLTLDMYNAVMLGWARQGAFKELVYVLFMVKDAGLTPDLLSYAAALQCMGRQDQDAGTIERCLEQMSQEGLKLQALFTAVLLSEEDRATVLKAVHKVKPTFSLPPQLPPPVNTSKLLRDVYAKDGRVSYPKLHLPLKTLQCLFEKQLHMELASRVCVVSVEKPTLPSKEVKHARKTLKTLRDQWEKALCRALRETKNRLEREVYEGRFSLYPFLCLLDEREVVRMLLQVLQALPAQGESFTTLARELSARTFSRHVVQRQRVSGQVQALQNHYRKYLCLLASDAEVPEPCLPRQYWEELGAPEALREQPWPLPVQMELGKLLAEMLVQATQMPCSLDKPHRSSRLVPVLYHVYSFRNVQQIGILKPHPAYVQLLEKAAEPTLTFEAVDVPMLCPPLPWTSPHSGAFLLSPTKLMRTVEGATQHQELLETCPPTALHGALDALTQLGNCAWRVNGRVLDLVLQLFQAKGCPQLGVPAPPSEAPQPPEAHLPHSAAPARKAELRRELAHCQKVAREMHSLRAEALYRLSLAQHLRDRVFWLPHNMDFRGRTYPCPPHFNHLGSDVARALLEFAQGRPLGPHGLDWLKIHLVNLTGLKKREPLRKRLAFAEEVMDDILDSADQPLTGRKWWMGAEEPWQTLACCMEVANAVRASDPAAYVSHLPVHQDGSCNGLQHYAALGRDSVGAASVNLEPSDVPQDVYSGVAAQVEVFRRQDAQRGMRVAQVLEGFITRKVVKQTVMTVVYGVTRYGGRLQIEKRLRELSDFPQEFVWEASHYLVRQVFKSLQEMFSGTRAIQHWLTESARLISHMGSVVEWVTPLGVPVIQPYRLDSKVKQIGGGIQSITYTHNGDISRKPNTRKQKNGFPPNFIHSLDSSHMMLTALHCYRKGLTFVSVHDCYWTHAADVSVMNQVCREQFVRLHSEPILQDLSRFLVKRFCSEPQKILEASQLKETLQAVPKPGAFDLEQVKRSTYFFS

Structure (SMILES) | IC50 [1] [µM] | IC50 [2] [µM] | IC50 [3] [µM] | IC50 [4] [µM] | IC50 [5] [µM] | Activity [6] [%] | IC50 [7] [µM] | IC50 (DNA polymerase beta) [µM] | IC50 [8] [µM] | remaining at 2 h, 2 µM [9] [%]
O=c1ccn([C@@H]2O[C@H](COP(=O)(O)OP(=O)(O)OP(=O)(O)O)C(O)C2(F)Cl)c(=O)[nH]1 (single isomer, unassigned) | 5.5 | 13 | 6.1 | 8.6 | > 100 | 35 | 20.2 | > 100 | > 100 | –
CC1CC(OC(=O)C(O)c2ccccc2)CC(C)(C)N1C (stereo not given) [EUCATROPINE] | – | – | – | – | – | – | – | – | – | 19
